Data set [1] can be described thus: Microsomal stability in human liver microsomes assessed as half-life preincubated for 5 mins followed by NADPH and UDP-GlcUA addition and measured after 30 to 120 mins by UHPLC analysis. The class given is ADME, Microsome. As to conditions: time 35-125 min.
Data set [2] is described as follows: Microsomal stability in human liver microsomes assessed as intrinsic clearance preincubated for 5 mins followed by NADPH and UDP-GlcUA addition and measured after 30 to 120 mins by UHPLC analysis. It counts as ADME, Microsome. As to conditions: time 35-125 min, read-out: CLH.
The nature of data set [3]: Cytotoxicity against human HaCaT cells assessed as reduction in cell survival index incubated for 48 hrs by MTT assay. It counts as toxicity, cell-based.
Another data set deals with HCT-116. As to the kind of experiment: Antiproliferative activity against human HCT-116 cells assessed as reduction in cell survival index incubated for 48 hrs by MTT assay. The note with it: HCT-116, 48 h.
The target in data set [4] is T1, Bifunctional epoxide hydrolase 2 (Homo sapiens) (UniProt P34913).
T1 sequence (whole entry): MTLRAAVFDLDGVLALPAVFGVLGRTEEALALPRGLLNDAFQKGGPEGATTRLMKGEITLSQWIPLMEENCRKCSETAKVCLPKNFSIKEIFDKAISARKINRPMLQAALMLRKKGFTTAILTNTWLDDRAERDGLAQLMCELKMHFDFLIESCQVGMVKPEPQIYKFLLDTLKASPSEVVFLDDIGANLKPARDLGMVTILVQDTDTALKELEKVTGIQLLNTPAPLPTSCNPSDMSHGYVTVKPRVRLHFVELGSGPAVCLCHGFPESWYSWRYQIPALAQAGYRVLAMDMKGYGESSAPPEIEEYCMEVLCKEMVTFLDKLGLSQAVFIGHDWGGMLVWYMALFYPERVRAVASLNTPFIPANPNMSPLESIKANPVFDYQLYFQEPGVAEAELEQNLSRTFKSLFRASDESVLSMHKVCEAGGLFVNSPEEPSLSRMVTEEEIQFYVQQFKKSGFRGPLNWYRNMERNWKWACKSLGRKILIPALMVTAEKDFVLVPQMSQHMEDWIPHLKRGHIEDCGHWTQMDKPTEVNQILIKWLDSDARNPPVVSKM
Put plainly: Inhibition of recombinant human sEH extracted from baculovirus infected Sf9 cells using PHOME as substrate at 10 uM preincubated for 15 mins followed by PHOME substrate addition and measured after 60 mins by fluorescence based analysis relative to control. As to conditions: time 75.0 min.

Each structure is given as a SMILES string.

For the compound `O=C(Oc1ccc2c(c1)-c1nc3nonc3nc1C2=O)c1ccccc1`, the half-life in data set [1] was 1.16 h. Further, the microsomal CLint in data set [2] stood at 19.9 µL/min/mg.

Consider `O=C1c2ccc(OCCCc3ccccc3)cc2-c2nc3nonc3nc21`, for which, in data set [1], the half-life was determined as 5.43 h. Further, in data set [3], the IC50 at 48 h was determined as 28 µM. Besides, the microsomal CLint in data set [2] was found to be 4.25 µL/min/mg. Moreover, the IC50 in the data set on HCT-116 is 6.4 µM.

As to `O=C1c2ccc(OCCc3ccc(F)cc3)cc2-c2nc3nonc3nc21`, in data set [1], the half-life was 0.715 h. For the same compound, the microsomal CLint in data set [2] stood at 32.3 µL/min/mg.

Regarding `O=C1c2ccc(OCc3ccccc3)cc2-c2nc3nonc3nc21`, in data set [1], the half-life is 2.74 h. In data set [2], the microsomal CLint was 8.42 µL/min/mg.

In the case of `O=C(COc1ccc2c(c1)-c1nc3nonc3nc1C2=O)OCc1ccccc1`, in data set [1], the half-life was 0.075 h. Moreover, the inhibition in data set [4] was 48%. In addition, the microsomal CLint in data set [2] was 307 µL/min/mg.

Consider `O=C1c2ccc(OCCc3cccc(C(F)(F)F)c3)cc2-c2nc3nonc3nc21`, for which, in data set [1], the half-life was 2.65 h. Besides, the half-maximal inhibitory concentration (IC50) at 48 h in data set [3] was found to be 17 µM. Besides, the microsomal CLint in data set [2] stood at 8.73 µL/min/mg. In addition, the 50% inhibitory concentration (IC50) in the data set with HCT-116 turned out to be 8.3 µM.

Turning to `O=C1c2ccc(OCc3ccc(Br)cc3)cc2-c2nc3nonc3nc21`, the half-life in data set [1] was 3.97 h. The microsomal CLint in data set [2] is 5.82 µL/min/mg.

Values taken from ChEMBL document CHEMBL6109085, “Furazanopyrazine-based novel promising anticancer agents interfering with the eicosanoid biosynthesis pathways by dual mPGES-1 and sEH inhibition” (Eur J Med Chem, 2025).
